Test results: ChEMBL document CHEMBL5724914, “Linking interpersonal differences in gut microbiota composition and drug biotransformation activity” (2024)

Assays:
[1] = (§1) The drug is tested on Z-002 corresponding to rabbit gut metagenome with ENA study accession number: PRJEB37062 and ENA sample accession number: ERS12561802 for biotransformation under anaerobic condition. The drug concentrations were measured over 9 timepoints collected between 0 and 24 hours of incubation by liquid-chromatography-coupled mass spectrometry (LC–MS); details: 2 µM
[2] = as §1, with “Z-019” for “Z-002”, “rat” for “rabbit”, “ERS12561818” for “ERS12561802”; details: 2 µM
[3] = human gut metagenome, 24 h, 2 µM
[4] = as §1, with “Z-006” for “Z-002”, “mouse” for “rabbit”, “ERS12561806” for “ERS12561802”; details: 2 µM
[5] = as §1, with “WLS-039” for “Z-002”, “human” for “rabbit”, “ERS12561746” for “ERS12561802”; details: 2 µM
[6] = human gut metagenome, 24 h, 2 µM; remark: listed apart in the source
[7] = human gut metagenome, 24 h, 2 µM; remark: listed apart in the source
[8] = human gut metagenome, 24 h, 2 µM; remark: listed apart in the source
[9] = as §1, with “Z-012” for “Z-002”, “to” for “to rabbit gut”, “ERS12561812” for “ERS12561802”; details: 2 µM
[10] = as §1, with “WLS-310” for “Z-002”, “human” for “rabbit”, “ERS12561785” for “ERS12561802”; details: 2 µM
[11] = as §1, with “Z-014” for “Z-002”, “rat” for “rabbit”, “ERS12561814” for “ERS12561802”; details: 2 µM
[12] = human gut metagenome, 24 h, 2 µM; remark: listed apart in the source
[13] = human gut metagenome, 24 h, 2 µM; remark: listed apart in the source
[14] = as §1, with “WLS-098” for “Z-002”, “human” for “rabbit”, “ERS12561754” for “ERS12561802”; details: 2 µM
[15] = human gut metagenome, 24 h, 2 µM; remark: listed apart in the source
[16] = as §1, with “WLS-010” for “Z-002”, “human” for “rabbit”, “ERS12561743” for “ERS12561802”; details: 2 µM
[17] = human gut metagenome, 24 h, 2 µM; remark: listed apart in the source
[18] = as §1, with “WLS-170” for “Z-002”, “human” for “rabbit”, “ERS12561762” for “ERS12561802”; details: 2 µM
[19] = as §1, with “WLS-052” for “Z-002”, “human” for “rabbit”, “ERS12561747” for “ERS12561802”; details: 2 µM
[20] = as §1, with “Z-008” for “Z-002”, “to” for “to rabbit gut”, “ERS12561808” for “ERS12561802”; details: 2 µM
Note: call rule not given here.

SMILES	Bacterial Biotransformation [1]	Bacterial Biotransformation [2]	Bacterial Biotransformation [3]	Bacterial Biotransformation [4]	Bacterial Biotransformation [5]	Bacterial Biotransformation [6]	Bacterial Biotransformation [7]	Bacterial Biotransformation [8]	Bacterial Biotransformation [9]	Bacterial Biotransformation [10]	Bacterial Biotransformation [11]	Bacterial Biotransformation [12]	Bacterial Biotransformation [13]	Bacterial Biotransformation [14]	Bacterial Biotransformation [15]	Bacterial Biotransformation [16]	Bacterial Biotransformation [17]	Bacterial Biotransformation [18]	Bacterial Biotransformation [19]	Bacterial Biotransformation [20]
CN(C)C(=O)Oc1cccc([N+](C)(C)C)c1.[Br-] [NEOSTIGMINE BROMIDE]	Compound metabolized	Compound NOT metabolized	Compound NOT metabolized	Compound NOT metabolized	Compound NOT metabolized	Compound NOT metabolized	Compound NOT metabolized	Compound NOT metabolized	Compound NOT metabolized	Compound NOT metabolized	Compound NOT metabolized	Compound NOT metabolized	Compound NOT metabolized	Compound NOT metabolized	Compound NOT metabolized	Compound NOT metabolized	Compound NOT metabolized	Compound NOT metabolized	Compound NOT metabolized	Compound NOT metabolized
Cc1ccccc1C(OCCN(C)C)c1ccccc1.O=C(O)CC(O)(CC(=O)O)C(=O)O (stereo not given) [ORPHENADRINE CITRATE]	Compound metabolized	Compound NOT metabolized	Compound metabolized	Compound NOT metabolized	Compound metabolized	Compound NOT metabolized	Compound NOT metabolized	Compound metabolized	Compound NOT metabolized	Compound NOT metabolized	Compound NOT metabolized	Compound NOT metabolized	Compound NOT metabolized	Compound NOT metabolized	Compound metabolized	Compound metabolized	Compound NOT metabolized	Compound metabolized	Compound NOT metabolized	Compound NOT metabolized
CC(=O)CCCCn1c(=O)c2c(ncn2C)n(C)c1=O [PENTOXIFYLLINE]	Compound NOT metabolized	Compound NOT metabolized	Compound metabolized	Compound NOT metabolized	Compound NOT metabolized	Compound NOT metabolized	Compound NOT metabolized	Compound NOT metabolized	Compound NOT metabolized	Compound NOT metabolized	Compound NOT metabolized	Compound NOT metabolized	Compound NOT metabolized	Compound metabolized	Compound NOT metabolized	Compound NOT metabolized	Compound NOT metabolized	Compound metabolized	Compound NOT metabolized	Compound NOT metabolized
CCCN1C[C@H](CSC)C[C@@H]2c3cccc4[nH]cc(c34)C[C@H]21.CS(=O)(=O)O [PERGOLIDE MESYLATE]	Compound NOT metabolized	Compound NOT metabolized	Compound NOT metabolized	Compound NOT metabolized	Compound NOT metabolized	Compound NOT metabolized	Compound NOT metabolized	Compound NOT metabolized	Compound NOT metabolized	Compound NOT metabolized	Compound NOT metabolized	Compound NOT metabolized	Compound NOT metabolized	Compound NOT metabolized	Compound NOT metabolized	Compound NOT metabolized	Compound NOT metabolized	Compound NOT metabolized	Compound NOT metabolized	Compound NOT metabolized
O=C(NC(Cc1cc(=O)[nH]c2ccccc12)C(=O)O)c1ccc(Cl)cc1 (stereo not given) [REBAMIPIDE]	Compound metabolized	Compound NOT metabolized	Compound NOT metabolized	Compound NOT metabolized	Compound NOT metabolized	Compound NOT metabolized	Compound NOT metabolized	Compound NOT metabolized	Compound NOT metabolized	Compound NOT metabolized	Compound NOT metabolized	Compound NOT metabolized	Compound metabolized	Compound NOT metabolized	Compound metabolized	Compound metabolized	Compound NOT metabolized	Compound NOT metabolized	Compound NOT metabolized	Compound NOT metabolized

Results, then the compound that gave them:

Bacterial Biotransformation [1]	Bacterial Biotransformation [2]	Bacterial Biotransformation [3]	Bacterial Biotransformation [4]	Bacterial Biotransformation [5]	Bacterial Biotransformation [6]	Bacterial Biotransformation [7]	Bacterial Biotransformation [8]	Bacterial Biotransformation [9]	Bacterial Biotransformation [10]	Bacterial Biotransformation [11]	Bacterial Biotransformation [12]	Bacterial Biotransformation [13]	Bacterial Biotransformation [14]	Bacterial Biotransformation [15]	Bacterial Biotransformation [16]	Bacterial Biotransformation [17]	Bacterial Biotransformation [18]	Bacterial Biotransformation [19]	Bacterial Biotransformation [20]	SMILES
Compound metabolized	Compound NOT metabolized	Compound metabolized	Compound NOT metabolized	Compound NOT metabolized	Compound metabolized	Compound metabolized	Compound metabolized	Compound metabolized	Compound metabolized	Compound NOT metabolized	Compound metabolized	Compound metabolized	Compound metabolized	Compound metabolized	Compound metabolized	Compound NOT metabolized	Compound metabolized	Compound NOT metabolized	Compound NOT metabolized	CC(C)(C)N.CCC[C@H](N[C@@H](C)C(=O)N1[C@H](C(=O)O)C[C@@H]2CCCC[C@@H]21)C(=O)OCC [PERINDOPRIL ERBUMINE]
Compound NOT metabolized	Compound NOT metabolized	Compound NOT metabolized	Compound NOT metabolized	Compound NOT metabolized	Compound metabolized	Compound metabolized	Compound NOT metabolized	Compound NOT metabolized	Compound metabolized	Compound NOT metabolized	Compound metabolized	Compound NOT metabolized	Compound metabolized	Compound NOT metabolized	Compound NOT metabolized	Compound NOT metabolized	Compound metabolized	Compound NOT metabolized	Compound NOT metabolized	C=C[C@H]1CN2CC[C@H]1C[C@H]2[C@H](O)c1ccnc2ccc(OC)cc12.C=C[C@H]1CN2CC[C@H]1C[C@H]2[C@H](O)c1ccnc2ccc(OC)cc12.O.O.O=S(=O)(O)O [QUININE SULFATE]
